In PubChem BioAssay AID256 (DTP/NCI, 2004):
Values joined by “and” are separate entries in the source; they are usually repeats but may differ in a detail not shown here. Equal values may be shown once. Toxic doses and inconclusive results are not listed. The calls were made as follows: active = survival T/C of 150% or more; inactive = T/C below 125% in these data.

Tested on: CD2F1 mice, L1210 leukemia ip, survival T/C
Assay: NCI In Vivo Anticancer Drug Screen. Data for tumor model L1210 Leukemia (intraperitoneal) in CD2F1 (CDF1) mice
Conditions: higher = longer survival
Summary of the method: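 Activity against a transplanted murine tumor was judged by comparing the compound group with a vehicle group. The outcome in the treated animals was divided by that in the controls.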

[1] = endpoint: mean survival time, dose: 100.0 mg/kg/injection, schedule: Q04DX002 (ip), vehicle: saline with Tween-80
[2] = endpoint: mean survival time, dose: 25.0 mg/kg/injection, schedule: Q04DX002 (ip), vehicle: saline with Tween-80

Measured: T/C

CN(C)Cc1[c-]c(CN(C)C)ccc1.[Cl][Pt]
inactive: endpoint: median survival time, dose: 1.56 mg/kg/injection, schedule: Q04DX003 (ip), vehicle: saline 101 % of control | endpoint: median survival time, dose: 3.12 mg/kg/injection, schedule: Q04DX003 (ip), vehicle: saline 91 % of control and 107 % of control | endpoint: median survival time, dose: 6.25 mg/kg/injection, schedule: Q04DX003 (ip), vehicle: saline 111 % of control | endpoint: median survival time, dose: 12.5 mg/kg/injection, schedule: Q04DX003 (ip), vehicle: saline 96 % of control and 107 % of control | endpoint: median survival time, dose: 25.0 mg/kg/injection, schedule: Q04DX003 (ip), vehicle: saline 100 % of control and 107 % of control | endpoint: median survival time, dose: 50.0 mg/kg/injection, schedule: Q04DX003 (ip), vehicle: saline 100 % of control and 101 % of control | endpoint: median survival time, dose: 100.0 mg/kg/injection, schedule: Q04DX003 (ip), vehicle: saline 98 % of control

Cc1ccc(NCC(O)C(O)C(O)CO)cc1C (configuration not stated)
inactive: [1] 106 % of control | endpoint: mean survival time, dose: 200.0 mg/kg/injection, schedule: Q04DX002 (ip), vehicle: saline with Tween-80 103 % of control

CCCCCCCCCCCCNC(=O)C[n+]1cccc(C(=O)Nc2ccccc2)c1
inactive: endpoint: mean survival time, dose: 6.25 mg/kg/injection, schedule: Q01DX009 (ip), vehicle: saline with Tween-80 97 % of control | endpoint: mean survival time, dose: 6.25 mg/kg/injection, schedule: Q04DX003 (ip), vehicle: saline with Tween-80 106 % of control | endpoint: mean survival time, dose: 12.5 mg/kg/injection, schedule: Q01DX009 (ip), vehicle: saline with Tween-80 97 % of control | endpoint: mean survival time, dose: 12.5 mg/kg/injection, schedule: Q04DX003 (ip), vehicle: saline with Tween-80 100 % of control | endpoint: mean survival time, dose: 25.0 mg/kg/injection, schedule: Q04DX003 (ip), vehicle: saline with Tween-80 106 % of control

NC(CSS(=O)(=O)O)=NCCc1cccs1
inactive: endpoint: mean survival time, dose: 12.5 mg/kg/injection, schedule: Q04DX002 (ip), vehicle: saline with Tween-80 97 % of control | [2] 105 % of control

CCCC(=O)O.CCCC(=O)O.CCCC(=O)O.CCCC(=O)O.O=P1(N(CCCl)CCCl)NCCCO1.O=P1(N(CCCl)CCCl)NCCCO1.[Rh].[Rh] (configuration not stated)
inactive: endpoint: median survival time, dose: 0.13 mg/kg/injection, schedule: Q01DX001 (ip), vehicle: olive oil, sesame oil, peanut oil 101 % of control | endpoint: median survival time, dose: 0.25 mg/kg/injection, schedule: Q01DX001 (ip), vehicle: olive oil, sesame oil, peanut oil 102 % of control | endpoint: median survival time, dose: 0.5 mg/kg/injection, schedule: Q01DX001 (ip), vehicle: olive oil, sesame oil, peanut oil 103 % of control | endpoint: median survival time, dose: 1.0 mg/kg/injection, schedule: Q01DX001 (ip), vehicle: olive oil, sesame oil, peanut oil 95 % of control | endpoint: median survival time, dose: 2.0 mg/kg/injection, schedule: Q01DX001 (ip), vehicle: olive oil, sesame oil, peanut oil 102 % of control

O=C1C2CC(Cl)C(SSC3CC4C(=O)N(SC(Cl)(Cl)C(Cl)Cl)C(=O)C4CC3Cl)CC2C(=O)N1SC(Cl)(Cl)C(Cl)Cl (configuration not stated)
inactive: endpoint: median survival time, dose: 6.25 mg/kg/injection, schedule: Q01DX009 (ip), vehicle: saline with Tween-80 101 % of control | endpoint: median survival time, dose: 12.5 mg/kg/injection, schedule: Q01DX009 (ip), vehicle: saline with Tween-80 95 % of control | endpoint: median survival time, dose: 25.0 mg/kg/injection, schedule: Q01DX009 (ip), vehicle: saline with Tween-80 98 % of control and 100 % of control | endpoint: median survival time, dose: 50.0 mg/kg/injection, schedule: Q01DX009 (ip), vehicle: saline with Tween-80 101 % of control and 102 % of control | endpoint: median survival time, dose: 100.0 mg/kg/injection, schedule: Q01DX009 (ip), vehicle: saline with Tween-80 100 % of control and 102 % of control | endpoint: median survival time, dose: 200.0 mg/kg/injection, schedule: Q01DX009 (ip), vehicle: saline with Tween-80 102 % of control | endpoint: median survival time, dose: 400.0 mg/kg/injection, schedule: Q01DX009 (ip), vehicle: saline with Tween-80 105 % of control

O=S(=O)(c1ccccc1)C(Cl)Cl
inactive: endpoint: mean survival time, dose: 100.0 mg/kg/injection, schedule: Q04DX003 (ip), vehicle: other 95 % of control | endpoint: mean survival time, dose: 200.0 mg/kg/injection, schedule: Q04DX003 (ip), vehicle: other 100 % of control | endpoint: mean survival time, dose: 400.0 mg/kg/injection, schedule: Q04DX003 (ip), vehicle: other 100 % of control

O=S(=O)(Nc1cc(S(=O)(=O)c2ccccc2)c(O)c2ccccc12)c1ccccc1
inactive: endpoint: mean survival time, dose: 100.0 mg/kg/injection, schedule: Q04DX003 (ip), vehicle: saline with Tween-80 96 % of control | endpoint: mean survival time, dose: 200.0 mg/kg/injection, schedule: Q04DX003 (ip), vehicle: saline with Tween-80 86 % of control | endpoint: mean survival time, dose: 400.0 mg/kg/injection, schedule: Q04DX003 (ip), vehicle: saline with Tween-80 91 % of control

CCc1cc(/C=C2\C(=O)C=Cc3ccccc32)c(O)s1
inactive: [2] 101 % of control | endpoint: mean survival time, dose: 50.0 mg/kg/injection, schedule: Q04DX002 (ip), vehicle: saline with Tween-80 96 % of control | [1] 96 % of control
